Assay results: patent publication US5001158A, “Nitrosoureas compounds preparation thereof and utilization thereof in anticancerous” (Centre National de la Recherche Scientifique, priority 1990, dated 1991)
Read-outs that look alike come from different tables or passages of the source.

Experiments:
Leukemia L 1210 = test system: Leukemia L 1210; set-up: key: N.S.: Not significant; .infin.: 50% more of the treated animals are cure; conditions: days 1, 5 and 9, cited from earlier work
[1] = test system: Lewis pulmonary carcinoma; set-up: key: N.S.: Not significant; .infin.: 50% more of the treated animals are cure; conditions: days 1, 5 and 9, cited from earlier work
Melanocarcinoma B 16 = conditions: days 1, 5 and 9, cited from earlier work
Glioma 26 = test system: Glioma 26; set-up: key: N.S.: Not significant; .infin.: 50% more of the treated animals are cure; conditions: days 1, 5 and 9, cited from earlier work
[2] = test system: Mammary adenocarcinoma TM2; set-up: key: N.S.: Not significant; .infin.: 50% more of the treated animals are cure; conditions: days 1, 5 and 9, cited from earlier work
[3] = test system: Carcinoma of the colon (colon 26); set-up: key: N.S.: Not significant; .infin.: 50% more of the treated animals are cure; conditions: days 1, 5 and 9, cited from earlier work
Ovarian M 555 = test system: Ovarian M 555; set-up: key: N.S.: Not significant; .infin.: 50% more of the treated animals are cure; conditions: days 1, 5 and 9, cited from earlier work
leukemia strain L1210 = assay: Antitumoral activity on leukemia L1210 i.p. in mice, unoxidized compounds (ICIG); assay type: in vivo, mice (male B6 D2 F1 /OLA); conditions: for survival rate after 60 days: at different doses; for I indices (in words): i.p., leukemia L1210
Method: The oncostatic activity of these nitrosated derivatives was determined at the I.C.I.G. in VILLEJUIF (Department of Prof. MATHE) following a described experimental protocol: M. HAYAT et al , Cancer Chemother. Pharmacol., 1979, 3, 217-221; R. MARAL et al., Eur. J. Med. Chem., submitted for publication.
(§1) Male B6 D2 F1 /OLA mice are inoculated intraperitoneally with 10^5 cells of the leukemia strain L1210 on day 0 and divided into groups. The first is the control group and the others are treated with the drugs at different concentrations on days 1, 5 and 9. The compounds are injected as a suspension in olive oil. The mortality of the animals is observed and the autopsy indicates whether it is due to leukemia or to the toxic action of the products.
(§2) The 50% lethal dose (LD50 acute) is determined by taking into account the mortality which has occurred before the 8th day among the animals treated on day D:1. The survival median of the treated animals (mT) and the control animals (mC) was established and Wilcoxon's non-parametric statistical test was applied. The results are considered positive if the index I [formula] is greater than 125 and the test Is significant at p≤0.05.

[4] = 50% lethal dose (LD50 acute) in mice; assay type: in vivo, mice (male B6 D2 F1 /OLA); conditions: mouse, in vivo, ip, mortality before the 8th day
Method: as §1, §2

Fibrosarcoma I.C.I.G. C1 = conditions: 20 mg/kg i.p., days 1, 5 and 9; cited from earlier work

CC(=O)O[C@@H]1[C@H](OC(C)=O)COC(NC(=O)N(CCCl)N=O)[C@@H]1OC(C)=O (stereo partly drawn) [R.P.C.N.U., 1-(2-chloroethyl)-3-[(2'-3'-4° trioacetyl)alphabeta D-ribopyrannosyl]-1-nitrosourea]
Increase in the survival time (I.L.S.: T/C × 100) (Leukemia L 1210; 15 mg/kg i.p.): N.S.
Increase in the survival time (I.L.S.: T/C × 100) ([1]; 15 mg/kg i.p.): N.S.
Increase in the survival time (I.L.S.: T/C × 100) (Melanocarcinoma B 16; 15 mg/kg i.p.): 151
Increase in the survival time (I.L.S.: T/C × 100) (Glioma 26; 15 mg/kg i.p.): 127
Increase in the survival time (I.L.S.: T/C × 100) ([2]; 15 mg/kg i.p.): 134
Increase in the survival time (I.L.S.: T/C × 100) ([3]; 15 mg/kg i.p.): N.S.
Increase in the survival time (I.L.S.: T/C × 100) (Ovarian M 555; 15 mg/kg i.p.): .infin. (50% more of the treated animals are cure)

O=NN(CCCl)C(=O)NCCS [(1), N-[N-(2-Chloroethyl)-N-nitrosocarbamoyl]cysteamine]
% of animals surviving to 60 days (leukemia strain L1210; 5 mg/kg i.p., days 1,5,9): 100%
index I (survival median treated vs control) (leukemia strain L1210; 5 mg/kg i.p., days 1,5,9): .infin. (50% or more of the animals survive to day +60)
% of animals surviving to 60 days (leukemia strain L1210; 10 mg/kg i.p., days 1,5,9): 100%
index I (survival median treated vs control) (leukemia strain L1210; 10 mg/kg i.p., days 1,5,9): .infin. (50% or more of the animals survive to day +60)
% of animals surviving to 60 days (leukemia strain L1210; 12.5 mg/kg i.p., days 1,5,9): 100%
index I (survival median treated vs control) (leukemia strain L1210; 12.5 mg/kg i.p., days 1,5,9): .infin. (50% or more of the animals survive to day +60)
% of animals surviving to 60 days (leukemia strain L1210; 15 mg/kg i.p., day +1): 100%
index I (survival median treated vs control) (leukemia strain L1210; 15 mg/kg i.p., day +1): .infin. (50% or more of the animals survive to day +60)
survival rate after 60 days (leukemia strain L1210): 100%
I indices (in words) (leukemia strain L1210): at infinity
LD50 [4]: 19 to 25 mg/kg

CC1(C)O[C@@H]2[C@@H](COC(=O)c3ccc([N+](=O)[O-])cc3)OC(NC(=O)N(CCCl)N=O)[C@@H]2O1 (stereo partly drawn) [R.F.C.N.U., 1-(2-chloroethyl)-3-[1'-(5'-pnitrobenzoyl 2', 3'-isopropylidene)alphabeta D-ribofuranosyl]-1-nitrosourea]
Increase in the survival time (I.L.S.: T/C × 100) (Leukemia L 1210; 20 mg/kg i.p.): 167
Increase in the survival time (I.L.S.: T/C × 100) ([1]; 20 mg/kg i.p.): N.S.
Increase in the survival time (I.L.S.: T/C × 100) (Melanocarcinoma B 16; 20 mg/kg i.p.): 144
Increase in the survival time (I.L.S.: T/C × 100) (Glioma 26; 20 mg/kg i.p.): N.S.
Increase in the survival time (I.L.S.: T/C × 100) ([2]; 20 mg/kg i.p.): N.S.
Increase in the survival time (I.L.S.: T/C × 100) (Fibrosarcoma I.C.I.G. C1): .infin. (50% more of the treated animals are cure)
Increase in the survival time (I.L.S.: T/C × 100) ([3]; 20 mg/kg i.p.): N.S.
Increase in the survival time (I.L.S.: T/C × 100) (Ovarian M 555; 20 mg/kg i.p.): N.S.

CC(=O)SCCNC(=O)N(CCCl)N=O [(5), S-acetyl-N-[N-(2-chloroethyl)-N-nitrosocarbamoyl] cysteamine]
% of animals surviving to 60 days (leukemia strain L1210; 10 mg/kg i.p., days 1,5,9): 14%
index I (survival median treated vs control) (leukemia strain L1210; 10 mg/kg i.p., days 1,5,9): .infin. (50% or more of the animals survive to day +60)
% of animals surviving to 60 days (leukemia strain L1210; 12.5 mg/kg i.p., days 1,5,9): 100%
index I (survival median treated vs control) (leukemia strain L1210; 12.5 mg/kg i.p., days 1,5,9): .infin. (50% or more of the animals survive to day +60)
% of animals surviving to 60 days (leukemia strain L1210; 15 mg/kg i.p., days 1,5,9): 80%
% of animals surviving to 60 days (leukemia strain L1210; 20 mg/kg i.p., days 1,5,9): 25%
survival rate after 60 days (leukemia strain L1210): 100%
I indices (in words) (leukemia strain L1210): at infinity
LD50 [4]: 19 to 25 mg/kg
